Experiment [1] concerns parakeratosis and skin roughness caused by oleic acid on the back of hairless mice. In words: Parakeratosis inhibition effect test: oleic acid applied to the back of hairless mice, visual skin roughness and parakeratosis level. In kind it is in vivo, hairless mice (HR-1). Further details: key to Evaluation Visual (mean of 4 mice), skin roughness: 0.0 = no roughness, 2.0 = control application; 0.25 steps. Particulars: for effect of inhibiting parakeratosis (conclusion from Table 1) / effect of inhibiting parakeratosis (conclusion from Table 4): hairless mice, oleic acid; for effect of inhibiting parakeratosis (conclusion from Table 1): first embodiment; for Evaluation Parakeratosis (mean of 4 mice): control 2.0; for Evaluation Visual (mean of 4 mice), skin roughness: score 0.0 no roughness, 2.0 control; for effect of inhibiting parakeratosis (conclusion from Table 4): fourth embodiment. The procedure:
A 3 weight % water solution (including 30 weight % ethanol) was prepared as the evaluation specimen of the glycine derivatives in accordance with the invention 1. The pH was regulated to the range between 7.0 to 7.5, by using hydrochloric acid and sodium hydroxide. When the solubility was low, the solution was adjusted accordingly.
100 microliters of 10 weight % oleic acid (solvent: ethanol) was applied to the back of hairless mice (HR-1, Hoshino laboratory animals). Thereafter, 100 microliters of sample solution was applied (glycine derivatives in accordance with said invention 1) at each time. This procedure was repeated for 3 days. The day after the application, the skin condition of the backs was observed by using a CCD camera to evaluate the skin roughness (stratified ablation of the skin surface stratum corneum and red spots). The skin condition was evaluated visually, with scoring the skin condition of control application to 2.0 and the skin condition of no roughness to 0.0, in a 0.25 point step in response to the skin condition. At the same time, the skin surface stratum corneum of the back of hairless mice was peeled off by using a tape for staining the nucleus with haematoxylin to observe the degrees of parakeratosis (parakeratosis level) and evaluate in 0.25 step in the range from 1.0 to 3.0. The higher evaluation points indicates the larger number of parakeratotic corneocytes count, i.e., severer parakeratosis.
The samples to be evaluated of the glycine derivatives and the salts thereof as well as the aminosulfuric acid derivatives and the salts thereof in accordance with the invention 2 were prepared mainly 3 weight % solution (including 30 weight % ethanol, excluding Hydantoic acid and ACES which include 20 weight % ethanol). pH was regulated by using hydrochloric acid or sodium hydroxide to be 7.0 to 7.5. When the solubility was low, then the solution was prepared accordingly.
100 microliters of 10 weight % oleic acid (solvent: ethanol) was applied to the back of Hairless mice (HR-1, Hoshino laboratory animals) Thereafter, 100 microliters of sample solution (glycine derivatives in accordance with the invention 2) was applied thereon at each time. This procedure was repeated for 3 days. The day after the application, the skin condition of the backs was observed by using a CCD camera to evaluate the skin roughness (stratified ablation of the skin surface stratum corneum and red spots). The skin condition was evaluated visually, with scoring the skin condition of control application to 2.0 and the skin condition of no roughness to 0.0, in a 0.25 point step in response to the skin condition. At the same time, the skin surface stratum corneum of the back of hairless mice was peeled off by using a tape for staining the nucleus with haematoxylin to observe the degrees of parakeratosis and evaluate in 0.25 step in the range from 1.0 to 3.0. The higher evaluation points indicates the larger number of parakeratotic corneocytes count, i.e., severer parakeratosis.

Experiment [2] concerns skin roughness caused by oleic acid on the back of hairless mice. In words: Inhibitory effect on skin roughness by the application of oleic acid (TEWL value). Format: in vivo, hairless mice (HR-1). Details: ΔTEWL: unit not given here. As to conditions: for ΔTEWL: after 10 weight % oleic acid, 3 days, four mice per group, control 12.0. How it is done: To study the inhibitory effect on the skin roughness by the application of oleic acid by the glycine derivatives and the salts thereof as well as the aminosulfuric acid derivatives and the salts thereof in accordance with the invention 2, the […] (TEWL value) before and after the application was measured to compare the difference therebetween with the value of control (control solution) in order to determine the effect. The preparation of samples and the application procedure were in accordance with the embodiment 4. The TEWL value was measured by means of TEWA meter TM210 (Courage+Khazaka Inc.).
100 microliters of 10 weight % oleic acid (solvent: ethanol) was applied to the back of hairless mice (HR-1, four in each group). Thereafter, 100 microliters of sample solutions (glycine derivatives and the salts thereof as well as the aminosulfuric acid derivatives and the salts thereof) in accordance with the invention 2 were applied at each time. This procedure was repeated for 3 days. The day after the application, TEWL value of the back of mice was measured and the values were averaged. The larger delta-TEWL value indicates severer aggravation of skin roughness.

[3] abbreviates: sample 3 weight % in aqueous 30 weight % ethanol, after 10 weight % oleic acid, 3 days, range 1.0 to 3.0, higher = severer.
[4] abbreviates: sample 3 weight % in aqueous 30 weight % ethanol, after 10 weight % oleic acid, 3 days.
The mark [5] stands for this setting: Table 4, sample 3 weight % in aqueous 30 weight % ethanol (hydantoic acid: 20 weight % ethanol), range 1.0 to 3.0, higher = severer.
Setting [6] is: Table 4, sample 3 weight % in aqueous 30 weight % ethanol (hydantoic acid: 20 weight % ethanol).
Where [7] appears, read: sample 3 weight %, larger = severer roughness.

Where a SMILES comes first, the peptide text is derived from it.

Regarding `Cl.NCC(=O)OCc1ccccc1` [glycine benzyl ester HCL, glycine benzyl ester hydrochloride], the “effect of inhibiting parakeratosis (conclusion from Table 1)” value in experiment [1] is “have the effect of inhibiting parakeratosis”. Moreover, in experiment [1] (setting [3]), the “Evaluation Parakeratosis (mean of 4 mice)” value (“Evaluation Parakeratosis” below) is listed as 1.2. Also, the “Evaluation Visual (mean of 4 mice), skin roughness” value (from here on “Evaluation Visual (mean of 4 mice)”) in experiment [1] (setting [4]) came to 1.3.
As for `CC(=O)NCC(=O)O` [N-acetylglycine, reference compound], the “Evaluation Parakeratosis” value in experiment [1] (setting [5]) was 2.0. Also, in experiment [1] (setting [6]), the “Evaluation Visual (mean of 4 mice)” value is recorded as 1.9. Also, the ΔTEWL in experiment [2] (setting [7]) came to 14.7.
Turning to `O=C(O)C1CCNCC1` [isonipecotinic acid, isonipecotic acid], in experiment [1], the “effect of inhibiting parakeratosis (conclusion from Table 1)” value is “have the effect of inhibiting parakeratosis”. Besides, in experiment [1] (setting [3]), the “Evaluation Parakeratosis” value worked out at 1.5. The “Evaluation Visual (mean of 4 mice)” value in experiment [1] (setting [4]) came out at 1.6.
For `CCCOC(=O)CN.Cl` [glycine n-propyl ester HCL, glycine n-propyl ester hydrochloride], in experiment [1], the “effect of inhibiting parakeratosis (conclusion from Table 1)” value was “have the effect of inhibiting parakeratosis”. The “Evaluation Parakeratosis” value in experiment [1] (setting [3]) was found to be 1.4. Besides, in experiment [1] (setting [4]), the “Evaluation Visual (mean of 4 mice)” value worked out at 1.4.
Regarding `O=C(O)CN(CCO)CCO` [bicine, reference compound], in experiment [1] (setting [5]), the “Evaluation Parakeratosis” value was found to be 2.0. In addition, the “Evaluation Visual (mean of 4 mice)” value in experiment [1] (setting [6]) was 1.9. The compound further showed a ΔTEWL in experiment [2] (setting [7]) of 12.0.
Consider `O=S(=O)(O)CCCNC(CO)(CO)CO` [TAPS, N-tris(hydroxymethyl)methyl-3-aminopropane sulfonic acid, reference compound], for which the “Evaluation Parakeratosis” value in experiment [1] (setting [5]) was 2.1. Moreover, in experiment [1] (setting [6]), the “Evaluation Visual (mean of 4 mice)” value came to 2.0. Besides, the “effect of inhibiting parakeratosis (conclusion from Table 4)” value in experiment [1] is “effect was not recognized”. The ΔTEWL in experiment [2] (setting [7]) worked out at 12.0.
In the case of `CC(C)(C)OC(=O)CN.Cl` [glycine t-butyl ester HCL, glycine t-butyl ester hydrochloride], in experiment [1], the “effect of inhibiting parakeratosis (conclusion from Table 1)” value is listed as “have the effect of inhibiting parakeratosis”. Further, the “Evaluation Parakeratosis” value in experiment [1] (setting [3]) was 1.5. In addition, the “Evaluation Visual (mean of 4 mice)” value in experiment [1] (setting [4]) was found to be 1.6.
For `CC(C(=O)O)N1CCOCC1` (centres unmarked) [methylmorpholino acetate, methylmorpholino acetic acid, reference compound], the “Evaluation Parakeratosis” value in experiment [1] (setting [5]) came to 2.0. Besides, the “Evaluation Visual (mean of 4 mice)” value in experiment [1] (setting [6]) is recorded as 1.9. In experiment [2] (setting [7]), this compound displayed a ΔTEWL of 10.8.
Take `CCOC(=O)CCN.Cl` [beta-alanine ethyl ester HCL, beta-alanine ethyl-ester hydrochloride]: in experiment [1], the “effect of inhibiting parakeratosis (conclusion from Table 1)” value was “have the effect of inhibiting parakeratosis”. In experiment [1] (setting [3]), the “Evaluation Parakeratosis” value amounted to 1.2. For the same compound, in experiment [1] (setting [4]), the “Evaluation Visual (mean of 4 mice)” value was determined as 1.0.
Taken in the same sequence, the figures for `CCOC(=O)CN.Cl` [glycine ethyl ester HCL, glycine ethyl ester hydrochloride] were “have the effect of inhibiting parakeratosis”, 1.1 and 1.2.
Take `O=C(O)CNC(=O)c1cccnc1` [nicotinoylglycine, N-nicotinoylglycine]: the “decrease of delta-TEWL value as compared to the control solution (conclusion from Table 6)” value in experiment [2] (hairless mice, oleic acid, seventh embodiment) is “significant decrease of delta-TEWL value”. Besides, in experiment [2] (sample 0.1 weight %), the ΔTEWL is recorded as 7.4.
Regarding `CN(C)CC(=O)O` [N,N-dimethylglycine, reference compound], the “Evaluation Parakeratosis” value in experiment [1] (setting [5]) turned out to be 2.3. In experiment [1] (setting [6]), the “Evaluation Visual (mean of 4 mice)” value is given as 2.1. In experiment [2] (setting [7]), this compound came in with a ΔTEWL of 15.5.
With `O=C(O)CNC(CO)(CO)CO` [tricine, reference compound], the “Evaluation Parakeratosis” value in experiment [1] (Table 4, sample 2 weight % in aqueous 30 weight % ethanol, range 1.0 to 3.0) was 2.1. The “Evaluation Visual (mean of 4 mice)” value in experiment [1] (Table 4, sample 2 weight % in aqueous 30 weight % ethanol) came out at 2.0. In addition, in experiment [2] (sample 2 weight %), the ΔTEWL stood at 12.2.
As for `CCCCOC(=O)CN.Cl` [glycine n-butyl ester HCL, glycine n-butyl ester hydrochloride], in experiment [1], the “effect of inhibiting parakeratosis (conclusion from Table 1)” value is on record as “have the effect of inhibiting parakeratosis”. For the same compound, the “Evaluation Parakeratosis” value in experiment [1] (setting [3]) worked out at 1.5. Besides, the “Evaluation Visual (mean of 4 mice)” value in experiment [1] (setting [4]) stood at 1.6.
Consider `O=S(=O)(O)CCCN1CCOCC1` [MOPS, 3-(N-morpholino)propane sulfonic acid, reference compound], for which the “Evaluation Parakeratosis” value in experiment [1] (setting [5]) is 2.1. The “Evaluation Visual (mean of 4 mice)” value in experiment [1] (setting [6]) worked out at 1.9. Besides, the “effect of inhibiting parakeratosis (conclusion from Table 4)” value in experiment [1] is recorded as “effect was not recognized”. This compound also registered a ΔTEWL in experiment [2] (setting [7]) of 13.2.
With `O=C1CNC(=O)N1` [hydantoin, reference compound], the “Evaluation Parakeratosis” value in experiment [1] (Table 4, sample 1 weight % in aqueous 30 weight % ethanol (ACES: 20 weight % ethanol), range 1.0 to 3.0) stood at 2.0. The “Evaluation Visual (mean of 4 mice)” value in experiment [1] (Table 4, sample 1 weight % in aqueous 30 weight % ethanol (ACES: 20 weight % ethanol)) was determined as 2.1. For the same compound, the “effect of inhibiting parakeratosis (conclusion from Table 4)” value in experiment [1] is recorded as “did not exhibit such effect”. In experiment [2] (sample 1 weight %), the ΔTEWL is given as 17.6.
Turning to `O=C(O)CC[C@H](NC(=O)c1ccccc1)C(=O)O` [N-benzoyl-L-glutamic acid], in experiment [1], the “effect of inhibiting parakeratosis (conclusion from Table 1)” value is listed as “have the effect of inhibiting parakeratosis”. For the same compound, in experiment [1] (setting [3]), the “Evaluation Parakeratosis” value is on record as 1.6. In addition, the “Evaluation Visual (mean of 4 mice)” value in experiment [1] (setting [4]) is 1.7.
`N=C(N)N1CCC(C(=O)O)CC1` [guanidinoisonipecotinic acid, reference compound]: the “Evaluation Parakeratosis” value in experiment [1] (setting [3]) worked out at 2.2. In addition, in experiment [1] (setting [4]), the “Evaluation Visual (mean of 4 mice)” value is listed as 2.0.
Consider `CC(=O)N[C@@H](CC(=O)O)C(=O)O` [N-acetyl-L-aspartic acid], for which, in experiment [1], the “effect of inhibiting parakeratosis (conclusion from Table 1)” value is “have the effect of inhibiting parakeratosis”. Further, the “Evaluation Parakeratosis” value in experiment [1] (setting [3]) stood at 1.5. For the same compound, the “Evaluation Visual (mean of 4 mice)” value in experiment [1] (setting [4]) amounted to 1.4.
Taken in the same sequence, the figures for `O=C(O)CC[C@H](NS(=O)(=O)c1ccccc1)C(=O)O` [N-benzenesulfonyl-L-glutamic acid, N-benzene-sulfonyl-L-glutamic acid] were “have the effect of inhibiting parakeratosis”, 1.6 and 1.6.
With `NCC(=O)NCC(=O)NCC(=O)O` [glycyl-glycylglycine, reference compound] (H-Gly-Gly-Gly-OH), the “Evaluation Parakeratosis” value in experiment [1] (sample 1 weight % in aqueous 30 weight % ethanol, after 10 weight % oleic acid, 3 days, range 1.0 to 3.0, higher = severer) amounted to 2.0. Besides, in experiment [1] (sample 1 weight % in aqueous 30 weight % ethanol, after 10 weight % oleic acid, 3 days), the “Evaluation Visual (mean of 4 mice)” value is 1.9.
On to `NCC(N)=O` [glycine amide, reference compound], for which, in experiment [1] (setting [3]), the “Evaluation Parakeratosis” value is on record as 2.1. Further, the “Evaluation Visual (mean of 4 mice)” value in experiment [1] (setting [4]) worked out at 1.9.
